{"source": "patent US7205140B2", "about": "“Nucleotide sequence for creatinine deiminase and method of use” (CampusGen GmbH, priority 2003, dated 2007)", "key": {"[1]": {"tested_on": "purified heterologously expressed creatinine deiminase from Tissierella creatinini", "assay": "Interference studies: compound added to the reaction mixture, creatinine deiminase activity determined (coupled optical test)", "format": "biochemical", "conditions": "for Maximum concentration without interference: compound added to standard reaction mixture, creatinine deiminase activity", "excerpt": "A technique for specifically measuring the creatinine concentration of a sample includes a simple indicator reaction step is provided, whereby no complicated auxiliary measurement reactions are necessary. […] Therefore, the subject creatinine deiminase polypeptide specifically and preferentially interacts with creatinine also in presence of other substrates with high specificity, without undue interference from other molecules which would otherwise compromise the accuracy of the measured value for the creatinine concentration in the sample.\n(§1) The activity of the purified recombinant enzyme was determined using a modified enzymatic method developed by Bergmeyer (Bergmeyer, H. U. (1985), Methods of enzymatic analysis 8: 488–507). This method includes the measuring of free ammonia produced during a creatinine deiminase reaction via a coupled optical test, by measuring the […] of NADH consumed by the free ammonia at […] and/or 365 nm. The initial reaction comprised the following concentrations in a final volume of 0.6 ml: TEA buffer 0.11 mol/l, pH 8.6; creatinine 1.5 mmol/l; ADP 1.11 mmol/l; DTE 1 mmol/l; NADH 0.11 mmol/l; 2-oxoglutarate 11 mmol/l; glutamate dehydrogenase 8 U/ml. After incubating the reaction components (5 min at 37° C.), 0.01 ml of the purified recombinant enzyme was transferred to a cuvette and placed into a photometer for observing the extinction acceptance reaction at 340 nm. One enzyme unit was determined to catalyze the degrading of 1 μmol creatinine/min at 37° C.\nA series of interference studies was performed using the purified and expressed creatinine deiminase polypeptide in the presence of the different serum compounds. The compound was provided to the standard reaction mixture and the creatinine deiminase activity was determined using the methods described above."}, "[2]": {"assay": "Enzyme activity of recombinant creatinine deiminase (coupled optical test / Jaffé method)", "format": "biochemical", "method": "The heterologous expression of an active creatinine deiminase derived from T. creatinini in E. coli (from the recombinant cell extract) was analyzed using gel electrophoresis (FIG. 8) and by determining the enzymatic activity in the cell-free raw extracts. […] Additionally, a band for the purified creatinine deiminase appeared at this same distance of 300 kDa (see FIG. 8, lanes 3 and 5), and likewise a similar band appeared in the raw extract of T. creatinini (FIG. 8, lane 2). The predicted size for creatinine deiminase (300 kDa) is well within range of the known value (288 kDa) as determined by Gottschalk et al. 1991 (supra). The specific activity of the recombinant creatinine deiminase in the cell-free extract was determined to be about 10.2 U/mg.\nHeterologous sequences expressing creatinine deiminase (EC 3.5.4.21), as derived from T. creatinini, were also purified according to methods described by Gottschalk et al. 1991 (supra). The creatinine deiminase protein was purified from 5 g of cells using ammonium sulphate precipitation and chromatography to apparent homogeneity using phenylsepharose and DEAE-Sepharose CL6B (see FIG. 9). The specific activity of the purified recombinant enzyme was determined to be 1423 U/mg (see Table 2). The enzyme was suspended in a potassium phosphate buffer (KPP; pH 7.65, 50% Glycerin) and stored at −20° C. in. The purification steps are described as follows:\nas §1"}, "[3]": {"assay": "Storage stability of the purified enzyme in dialysis buffer", "format": "physicochemical", "conditions": "in the dialysis buffer for several months", "method": "These samples were dialyzed using several rounds of fresh buffer (0.05 mol/l potassium phosphate, pH 7.65/glycerine, 1:2 v/v) at 4° C. until ammonia could no longer be detected.\nThe purified enzyme remained stable in the dialysis buffer for several months, experiencing a loss of activity of 9.1%. The optimal pH value for the purified enzyme, when suspended in phosphate and TEA buffers, was within the range of 8.5–8.75, with maximum activity measured at 47° C."}}, "data": [{"molecule": "Nc1nc(=O)[nH]cc1F", "note": "[5-Fluorocytosine]", "values": [{"measurement": "Maximum concentration without interference", "setting": "[1]", "value": 1000, "unit": "mg/L"}]}, {"molecule": "CC(=O)O", "note": "[Acetic acid]", "values": [{"measurement": "Maximum concentration without interference", "setting": "[1]", "value": 200, "unit": "mg/L"}]}, {"molecule": "CC(=O)CC(=O)O", "note": "[Acetoacetate]", "values": [{"measurement": "Maximum concentration without interference", "setting": "[1]", "value": 7.8, "unit": "mg/L"}]}, {"molecule": "CC(C)=O", "note": "[Acetone]", "values": [{"measurement": "Maximum concentration without interference", "setting": "[1]", "value": 2000, "unit": "mg/L"}]}, {"molecule": "C[C@H](CS)C(=O)N1CCC[C@H]1C(=O)O", "note": "[Captopril]", "values": [{"measurement": "Maximum concentration without interference", "setting": "[1]", "value": 83, "unit": "mg/L"}]}, {"molecule": "CN(CC(=O)O)C(=N)N", "note": "[Creatine]", "values": [{"measurement": "Maximum concentration without interference", "setting": "[1]", "value": 2000, "unit": "mg/L"}]}, {"molecule": "Nc1cc[nH]c(=O)n1", "note": "[Cytosine]", "values": [{"measurement": "concentration without any interference", "setting": "[1]; as stated in the text for Table 1", "value": "up to 2000 mg/ml"}, {"measurement": "Maximum concentration without interference", "setting": "[1]", "value": 2000, "unit": "mg/L"}]}, {"molecule": "CNC[C@H](O)c1ccc(O)c(O)c1", "note": "[Epinephrine]", "values": [{"measurement": "Maximum concentration without interference", "setting": "[1]", "value": 0.05, "unit": "mg/L"}]}, {"molecule": "NS(=O)(=O)c1cc(C(=O)O)c(NCc2ccco2)cc1Cl", "note": "[Fuoresemide]", "values": [{"measurement": "Maximum concentration without interference", "setting": "[1]", "value": 4433, "unit": "mg/L"}]}, {"molecule": "N[C@@H](Cc1c[nH]cn1)C(=O)O", "note": "[Histidine]", "values": [{"measurement": "Maximum concentration without interference", "setting": "[1]", "value": 2250, "unit": "mg/L"}]}, {"molecule": "NC[C@H](O)c1ccc(O)c(O)c1", "note": "[Norepinephrine]", "values": [{"measurement": "Maximum concentration without interference", "setting": "[1]", "value": 1.5, "unit": "mg/L"}]}, {"molecule": "O=C(O)C(=O)O", "note": "[Oxalic acid]", "values": [{"measurement": "Maximum concentration without interference", "setting": "[1]", "value": 400, "unit": "mg/L"}]}, {"molecule": "O=C(O)c1cc(/N=N/c2ccc(S(=O)(=O)Nc3ccccn3)cc2)ccc1O", "note": "[Salazosulphapyridine]", "values": [{"measurement": "Maximum concentration without interference", "setting": "[1]", "value": 550, "unit": "mg/L"}]}, {"molecule": "Cc1cc(NS(=O)(=O)c2ccc(N)cc2)no1", "note": "[Sulphamethoxazole]", "values": [{"measurement": "Maximum concentration without interference", "setting": "[1]", "value": 500, "unit": "mg/L"}]}, {"molecule": "COc1cc(Cc2cnc(N)nc2N)cc(OC)c1OC", "note": "[Trimethoprime]", "values": [{"measurement": "Maximum concentration without interference", "setting": "[1]", "value": 46, "unit": "mg/L"}]}, {"molecule": "CN[C@H](CC(C)C)C(=O)N[C@H]1C(=O)N[C@@H](CC(N)=O)C(=O)N[C@H]2C(=O)N[C@H]3C(=O)N[C@H](C(=O)N[C@H](C(=O)O)c4cc(O)cc(O)c4-c4cc3ccc4O)[C@H](O)c3ccc(c(Cl)c3)Oc3cc2cc(c3O[C@@H]2O[C@H](CO)[C@@H](O)[C@H](O)[C@H]2O[C@H]2C[C@](C)(N)[C@H](O)[C@H](C)O2)Oc2ccc(cc2Cl)[C@H]1O", "note": "[Vancomycin]", "values": [{"measurement": "Maximum concentration without interference", "setting": "[1]", "value": 288, "unit": "mg/L"}]}, {"molecule": "C[C@](N)(Cc1ccc(O)c(O)c1)C(=O)O", "note": "[α-Methyl-Dopa]", "values": [{"measurement": "Maximum concentration without interference", "setting": "[1]", "value": 107, "unit": "mg/L"}]}, {"molecule": "Hemoglobin", "values": [{"measurement": "Maximum concentration without interference", "setting": "[1]", "value": 0, "unit": "mg/L"}]}, {"molecule": "recombinant creatinine deiminase: creatinine deiminase (EC 3.5.4.21) from Tissierella creatinini, heterologously expressed in E. coli; 406 amino acid polypeptide (protein, listed as Tissierella creatinini) MMKKFINAKIYKNNEATEILVEDGKIKEIGNNLADCKEVIDLGGKMVTPPYVDPHLHLDYVYTLAELGKTGAGSGTLFEAIEMWPVFKKTLTVESVKKLALKGVMDEVSQGVQHIRTHIDVTDPKFTGLKAMLEMKEELKDIVDIQIVSFPQQGMYTYKGGRELVEEALKMGADVVGGIPHYEPAREYGEMSVKATVELAMKYDKLIDVHCDETDDPQARFIELLNALVYLEGYGAKTSASHTCSFGSADDSYAYRMIDLFKKSKINFISNPTENAYLQGRHDTYPKRRGLTRVKEFMEHGINVAFAQDSINDPWYPMGNGNMMNILDNGIHLAQIMSPQDIEKDLDLITYNGARCLNIQDKYLLEVGKDSNFIVLNGDSPFDVIRNRANVLACVRKGEFYLSKNQ", "values": [{"measurement": "Km", "setting": "[2]; Lineweaver Burke plot analysis", "value": 1100, "unit": "µM"}, {"measurement": "specific activity of the purified recombinant enzyme", "setting": "[2]; after phenylsepharose and DEAE-Sepharose CL6B", "value": 1423, "unit": "U/mg"}, {"measurement": "specific activity in the cell-free extract", "setting": "[2]; cell-free extract of E. coli DH5α/pKT1", "value": "about 10.2 U/mg"}, {"measurement": "optimal pH value", "setting": "[2]; in phosphate and TEA buffers", "value": "8.5–8.75"}, {"measurement": "Vmax", "setting": "[2]; per protein", "value": 1467, "unit": "U/mg"}, {"measurement": "Vmax", "setting": "[2]; this enzyme preparation", "value": 8.8, "unit": "U/ml"}, {"measurement": "loss of activity", "setting": "[3]", "value": 9.1, "unit": "%"}]}]}
